Test results from paper PMC9030691, “Toxicokinetics of β-Amanitin in Mice and In Vitro Drug–Drug Interaction Potential” (Pharmaceutics, 2022).
Where two headings read alike, the source gives them in different places.

Assays:
in vivo = assay type: in vivo; details: male ICR mice, n = 4; for AUClast, brain: brain homogenate; for AUClast, heart: heart homogenate; for AUClast, kidney: kidney homogenate; for AUClast, liver: liver homogenate; for AUClast, lung: lung homogenate; for AUClast, spleen: spleen homogenate; for AUC(0-t): mouse, in vivo, plasma, read-out: AUClast, plasma (converted)
Description: Male mice fasted for 12 h with free access to water. Blood, brain, liver, kidney, heart, lung, stomach, intestine, and spleen were collected at 0.5, 1, 2, and 4 h after iv (0.8 mg/kg) injection or at 0.5, 1, 3, and 6 h after oral (10 mg/kg) administration of β-amanitin (n = 4 at each time point). Plasma samples (5 μL each) were harvested by centrifugation at 13,000× g for 3 min at 4 °C. Tissue samples were washed with cold normal saline, weighed, and stored at −80 °C until analysis.
Concentrations of β-amanitin in biological samples were evaluated following our previous methodology. The standard calibration curves for β-amanitin in mouse plasma ranged from 0.5 to 500 ng/mL and were linear, with a correlation coefficient of 0.9952. The inter- and intra-day accuracy and precision fell within the acceptance criteria (3.1–14.6% of coefficients of variation (CVs) and 92.5–115.0% of accuracy). The extraction recovery and matrix effect of this analytical method were 82.8–88.9% and 93.0–98.6%.
Each tissue and feces sample was homogenized in water (1:3, w/v). In total, 50 μL aliquots of urine, tissue homogenates, or feces homogenates were mixed with 150 μL of 4′-hydroxydiclofenac solution (IS, 5 ng/mL in methanol). The other steps were as described for plasma sample preparation.
Toxicokinetics of β-Amanitin in Mice and In Vitro Drug–Drug
Young Yoon Bang, Im-Sook Song, Min Seo Lee, Chang Ho Lim, Yong-Yeon Cho, Joo Young Lee, Han Chang Kang […]
1. Liquid chromatography-high resolution mass spectrometry (LC-HRMS) of β-amani-tin in various tissue samples
Blood, brain, liver, kidney, heart, lung, stomach, intestine, and spleen tissues were collected, washed with cold normal saline, and weighted. Tissue samples were homoge-nized in water (1:3, w/v) and 50 μL aliquots of tissue homogenates were mixed with 150 μL of 4’-hydroxydiclofenac solution (IS, 5 ng/mL in methanol) and vortexed for 2 min. The mixture was centrifuged at 13,000 rpm at 4 °C for 5 min, and the supernatant was then transferred to an autosampler vial. An aliquot (5 μL) was injected into the LC-HRMS sys-tem for analysis, according to the previous methods. The standard calibration curves for β-amanitin in various tissue homogenates were prepared individually using the re-spective blank tissue homogenates. Each calibration standard curve was validated using the quality control (QC) samples.
As results, the standard calibration curves for β-amanitin in various tissue homoge- […]
the quality control samples prepared in various tissue homogenates were all in acceptance criteria (Supplementary Table 1).
Table S1. Concentration ranges, representative regression equation, and correlation coefficients of the calibration curves and precision (coefficient of variation, CV) and accuracy values for β-amanitin […]
Tissue Concentration Representative regression Correlation range (ng/g tissue) equation coefficient QC (ng/g tissue) Intra-day (n = 5) Accuracy (%) CV (%) […]

CYP2C8 = target: T1, CYP2C8 (Homo sapiens, UniProt P10632); experiment: CYP2C8 inhibition in human liver microsomes; assay type: in vitro ADME; details: ultrapooled human liver microsomes 0.2 mg/mL, 2 μM amodiaquine, β-amanitin 0.1–100 μM, pH 7.4, 37 °C, 15 min, LC-MS/MS, n = 3, read-out: IC50, CYP2C8 amodiaquine N-deethylase
T1 construct: enzyme activities in HLMs were evaluated using LC-MS/MS and CYP substrates; from tissue; host or cells: ultrapooled human liver microsomes
T1 sequence (P10632 1-490): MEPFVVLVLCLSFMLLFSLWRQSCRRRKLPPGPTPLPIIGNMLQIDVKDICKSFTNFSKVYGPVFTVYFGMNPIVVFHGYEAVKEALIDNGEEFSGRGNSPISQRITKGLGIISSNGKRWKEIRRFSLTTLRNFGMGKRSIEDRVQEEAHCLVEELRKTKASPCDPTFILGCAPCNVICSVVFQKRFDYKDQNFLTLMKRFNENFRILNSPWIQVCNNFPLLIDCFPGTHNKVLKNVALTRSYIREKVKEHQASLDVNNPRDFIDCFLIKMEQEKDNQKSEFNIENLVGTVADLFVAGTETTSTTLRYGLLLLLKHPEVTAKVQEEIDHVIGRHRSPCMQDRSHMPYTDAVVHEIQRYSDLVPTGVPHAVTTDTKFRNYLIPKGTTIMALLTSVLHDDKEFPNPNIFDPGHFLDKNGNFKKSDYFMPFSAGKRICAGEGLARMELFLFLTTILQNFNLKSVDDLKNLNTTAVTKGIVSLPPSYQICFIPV
Description: β-amanitin inhibition (IC50 values) of CYP1A2, CYP2A6, CYP2B6, CYP2C8, CYP2C9, CYP2C19, CYP2D6, and CYP3A4 enzyme activities in HLMs were evaluated using LC-MS/MS and CYP substrates as previously described. Each incubation mixture was made up to a volume of 100 μL including HLMs (0.2 mg/mL), 50 mM potassium phosphate buffer (pH 7.4), 1.0 mM NADPH, 10 mM magnesium chloride, various concentrations of β-amanitin (0.1–100 μM), a cocktail of seven CYP probe substrates (50 μM phenacetin for CYP1A2, 2.5 μM coumarin for CYP2A6, 2 μM amodiaquine for CYP2C8, 10 μM diclofenac for CYP2C9, 100 μM [S]-mephenytoin for CYP2C19, 5 μM bufuralol for CYP2D6, and 2.5 μM midazolam for CYP3A4 in acetonitrile), or 50 μM bupropion for CYP2B6. The reactions were initiated with NADPH followed by incubation in a shaking water bath at 37 °C for 15 min with or without 30 min preincubation with NADPH. Reactions were stopped with 50 μL of ice-cold methanol containing ^13C2, ^15N-acetaminophen and d9-1′-hydroxybufuralol (ISs). Incubation mixtures were centrifuged at 13,000× g for 8 min at 4 °C. An aliquot (5 μL) of the supernatant from the reaction mixture was analyzed by the previous LC-MS/MS method.

[1] = iv 0.8 mg/kg, sampled 0.5, 1, 2, 4 h, LC-HRMS, mean ± SD
[2] = po 10 mg/kg, sampled 0.5, 1, 3, 6 h, LC-HRMS, mean ± SD

CC[C@H](C)[C@@H]1NC(=O)CNC(=O)[C@@H]2Cc3c([nH]c4cc(O)ccc34)[S@+]([O-])C[C@H](NC(=O)CNC1=O)C(=O)N[C@@H](CC(=O)O)C(=O)N1C[C@H](O)C[C@H]1C(=O)N[C@@H]([C@@H](C)[C@@H](O)CO)C(=O)N2 [β-amanitin]
AUClast, brain (in vivo; iv 0.8 mg/kg, sampled 0.5, 1, 2, 4 h, LC-HRMS): - | AUClast, heart (in vivo; [1]): 13,397 ± 908 ng⋅min/g | AUClast, kidney (in vivo; [1]): 142,023 ± 7510 ng⋅min/g | AUClast, liver (in vivo; [1]): 25,780 ± 2440 ng⋅min/g | AUClast, lung (in vivo; [1]): 35,970 ± 3070 ng⋅min/g | Tissue to plasma (AUC) ratio, heart (in vivo; iv 0.8 mg/kg): 0.2 | Tissue to plasma (AUC) ratio, liver (in vivo; iv 0.8 mg/kg): 0.5 | Tissue to plasma (AUC) ratio, lung (in vivo; iv 0.8 mg/kg): 0.7 | Tissue to plasma (AUC) ratio, kidney (in vivo; iv 0.8 mg/kg, 0.8 mg/kg): 2.6 | Tissue to plasma (AUC) ratio, spleen (in vivo; iv 0.8 mg/kg, 0.8 mg/kg): 2.5 | AUClast, spleen (in vivo; [1]): 137,855 ± 11,949 ng⋅min/g | AUClast, brain (in vivo; po 10 mg/kg, sampled 0.5, 1, 3, 6 h, LC-HRMS): - | AUClast, heart (in vivo; [2]): 12,563 ± 2696 ng⋅min/g | AUClast, intestine (in vivo; po 10 mg/kg, intestine homogenate, sampled 0.5, 1, 3, 6 h, LC-HRMS, mean ± SD): 2,066,298 ± 492,689 ng⋅min/g | AUClast, kidney (in vivo; [2]): 158,677 ± 84,620 ng⋅min/g | AUClast, liver (in vivo; [2]): 12,665 ± 11,731 ng⋅min/g | AUClast, lung (in vivo; [2]): 37,831 ± 11,434 ng⋅min/g | Tissue to plasma (AUC) ratio, heart (in vivo; po 10 mg/kg): 0.5 | Tissue to plasma (AUC) ratio, intestine (in vivo; po 10 mg/kg): 87.3 | Tissue to plasma (AUC) ratio, liver (in vivo; po 10 mg/kg): 0.5 | Tissue to plasma (AUC) ratio, lung (in vivo; po 10 mg/kg): 1.6 | Tissue to plasma (AUC) ratio, spleen (in vivo; po 10 mg/kg): 1.8 | Tissue to plasma (AUC) ratio, stomach (in vivo; po 10 mg/kg): 28.8 | AUClast, spleen (in vivo; [2]): 42,409 ± 33,867 ng⋅min/g | AUClast, stomach (in vivo; po 10 mg/kg, stomach homogenate, sampled 0.5, 1, 3, 6 h, LC-HRMS, mean ± SD): 680,749 ± 137,691 ng⋅min/g | AUC(0-t) (in vivo; [1]): 910 ng·h/mL | AUC(0-t) (in vivo; [2]): 394 ng·h/mL | IC50 (CYP2C8; with 30 min NADPH preincubation): > 100 µM | IC50 (CYP2C8; without NADPH preincubation): > 100 µM
